# Measurements published in US12427212B2, “Nectin-4 binding miniproteins, conjugates and uses thereof” (Aktis Oncology, Inc., priority 2023, dated 2025).
# Bridges are numbered along the chain shown (N, C = ends). [ ]: non-standard residue; d: D form. The star is where a group is joined. DOTA = O=C(O)CN1CCN(CC(=O)O)CCN(CC(=O)*)CCN(CC(=O)O)CC1; Biotin = O=C1N[C@H]2[C@H](CS[C@H]2CCCCC(=O)*)N1; Lys(Me3) = C[N+](C)(C)CCCC[C@H](N)C(=O)O; Arg(Me2s) = CN=C(NC)NCCC[C@H](N)C(=O)O; Cit = NC(=O)NCCC[C@H](N)C(=O)O; PEG4 = NCCOCCOCCOCCOCCC(=O)O
# What was measured:
# Nectin-4 [1] = target: T1, Nectin-4 (Homo sapiens, UniProt Q96NY8); test: DELFIA competitive binding assay (Ki) against Eu-labeled C307 on HT-1376 cells
# T1 sequence (Q96NY8 32-510): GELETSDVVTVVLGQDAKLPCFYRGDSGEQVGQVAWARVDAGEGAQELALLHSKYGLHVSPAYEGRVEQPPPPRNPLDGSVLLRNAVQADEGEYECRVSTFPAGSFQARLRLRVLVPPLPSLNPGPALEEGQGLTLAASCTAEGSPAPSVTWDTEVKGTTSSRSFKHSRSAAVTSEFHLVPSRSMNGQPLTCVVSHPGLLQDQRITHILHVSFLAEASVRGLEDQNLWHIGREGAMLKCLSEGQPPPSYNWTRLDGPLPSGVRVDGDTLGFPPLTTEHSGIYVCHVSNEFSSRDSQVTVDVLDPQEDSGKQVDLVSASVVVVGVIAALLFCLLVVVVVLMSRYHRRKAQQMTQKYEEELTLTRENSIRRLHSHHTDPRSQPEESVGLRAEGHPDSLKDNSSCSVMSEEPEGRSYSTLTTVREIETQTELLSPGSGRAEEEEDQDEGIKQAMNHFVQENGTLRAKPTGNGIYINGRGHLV
# Description: A competition binding assay was utilized to determine the Ki for miniproteins bound to Nectin-4 expressed on the surface of cancer cells. […] Miniprotein incubations occurred for 90 min to reach binding equilibrium. […] After miniprotein incubations, the wells were washed to remove unbound ligand and treated according to manufacturer instructions for a DELFIA® (dissociation-enhanced lanthanide fluorescent immunoassay, Revvity Health Sciences). In brief, washed wells were incubated with 15 μL of 2 M HCl for 2 h at 37° C., after which 17 μL of 2 M NaOH and 30 μL of DELFIA® enhancement solution were added to each well and incubated for an additional 30 min. The remaining Eu reacted with the DELFIA® enhancer solution to generate fluorescence measured on the Envision instrument. Relative fluorescence units (RFUs) were measured as a function of test article concentration in order to calculate an IC50.
# A whole cell binding assay was used to estimate the equilibrium binding affinity (KD) or binding inhibition constant (Ki) of miniprotein ligands to cells expressing a target of interest. Cells were dispensed into a 384-well plate and incubated at 37° C., in 5% CO2 overnight. The next day cells were gently washed once in assay buffer prior to addition of europium chelated ligand. […] For Ki determination, a single concentration (KD equivalent concentration) of europium-chelate miniprotein was added to each well followed immediately by the addition of unconjugated competing ligand over 12 different concentrations ranging from 100 times below and above expected Ki values as before. The plate was incubated for 1.5 h at room temperature to reach binding equilibrium. Cells were then washed three times at room temperature with 1×PBS followed by the addition of 2 M HCl and incubated for two h at 37° C. Following this step, 2 M NaOH and fluorescent inducer solution were added to each well and incubated for 30 minutes at room temperature according to the manufacturer's protocol (Perkin-ELMER DELFIA assay). Plates were read on an Envision plate reader and a curve-fitting model was applied to estimate KD and Ki values using GraphPad Prism software.
# Engineered Nectin-4 miniproteins with further modified lysine residues (C298-C304; as described in Example 4B) were evaluated for their ability to bind to Nectin-4.
# [2] = system: Opossum kidney proximal tubule cells; test: Proximal tubule epithelial cell uptake assay; assay type: cell-based; conditions: Table 10A; mean percent uptake in opossum kidney cells, 1 h at 37° C., relative to control miniprotein C306
# Description: FIG. 8 is a bar graph of the percent uptake of exemplary miniproteins tested at 20 µM in a proximal tubule epithelial cell assay vs 20 μM control peptide set at 100%. […]
# Opossum kidney proximal tubule cells were plated in the upper chamber of 24-well transwell plates containing 600 μL of growth media in the lower chamber and were incubated overnight at 37° C., in 5% CO2. The following day, the media was changed, and cells were incubated an additional 24 h with orbital shaking at 146 RPM. Next, cells were washed and treated in duplicates with biotinylated exemplary miniproteins pre-complexed with streptavidin-AF647 for 1 h at 37° C., and 5% C02 with continuous orbital shaking. Following incubation, cells were washed three times with 1×PBS and lysed with RIPA buffer containing protease and phosphatase inhibitor cocktail and a universal nuclease for 30 minutes. Uptake was measured on 100 μL of lysates using a fluorimeter. Mean % uptake values of control miniprotein C306 in the presence of exemplary miniproteins are provided in TABLE 10A and summarized in FIG. 8.
# Uptake of engineered Nectin-4 miniproteins with further modified lysine residues (C298-C304, as described in Example 4B) was evaluated. Percent uptake of these exemplary Nectin-4-targeting miniproteins and C251 were determined against a control miniprotein, C306, using opossum kidney proximal tubule cells as described in Example 18A. Percent uptake of C298, which has an unmodified lysine (K) at amino acid position 26 (along the length of the miniprotein sequence. SEQ ID NO: 162), was 37% in the presence of […]. All other miniproteins having a modified lysine (modified with one or more small alkyl groups of monomethyl, dimethyl, trimethyl, or isopropyl group) had (i) kidney uptake similar to that of C251 and (ii) reduced uptake as compared to C298, which has an unmodified lysine at position 26.
# mouse Nectin-4 = target: T2, mouse Nectin-4 (Mus musculus, UniProt Q8R007); test: Surface plasmon resonance (Biacore), 1:1 binding model, mouse Nectin-4; conditions: SPR, 25° C.
# T2 sequence (Q8R007 31-508): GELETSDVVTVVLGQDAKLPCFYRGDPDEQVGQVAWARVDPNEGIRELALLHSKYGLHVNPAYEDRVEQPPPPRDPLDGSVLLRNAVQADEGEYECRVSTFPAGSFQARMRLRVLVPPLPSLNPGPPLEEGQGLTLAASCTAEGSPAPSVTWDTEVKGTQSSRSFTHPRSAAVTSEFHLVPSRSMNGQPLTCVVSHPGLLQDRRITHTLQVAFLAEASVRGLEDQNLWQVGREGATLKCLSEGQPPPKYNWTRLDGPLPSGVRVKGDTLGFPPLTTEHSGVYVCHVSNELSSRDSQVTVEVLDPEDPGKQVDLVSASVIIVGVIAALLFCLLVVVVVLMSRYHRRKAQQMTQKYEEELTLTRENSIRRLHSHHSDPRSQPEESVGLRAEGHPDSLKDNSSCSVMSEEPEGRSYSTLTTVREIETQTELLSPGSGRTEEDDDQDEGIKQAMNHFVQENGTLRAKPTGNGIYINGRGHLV
# Description: (§1) Peptide binding affinity to the target protein was measured by SPR using an SPR machine, such as a Biacore T200 instrument. The target protein was covalently coupled to a Biacore chip surface using free amine-coupling chemistry (NHS/EDC) and all uncoupled sites were blocked with ethanolamine. Free peptides were flowed over the target protein surface in increasing concentrations to measure association (Ka, 1/Ms^−1)) and dissociation (Kd, s^−1) to calculate the dissociation equilibrium constant (KD) using an appropriate binding model (see, e.g., Nikolas Stroth, J Biol Methods. 2016; 3 (1)).
# (§2) In FIGS. 1A, 1B, 2A, and 2B, lines on graphs are labeled from top to bottom, beginning with letter “a.” and the corresponding concentration is noted to the right of the figure.
# (§3) (i.e., a conjugate comprising a Nectin-4 peptide of SEQ ID NO: 5 and arranged having an N-terminus comprising ^138La-DOTA-PEG4 and a C-terminus comprising OH). […] In both FIGS. 3A and 3B, lines on graphs were labeled from top to bottom, beginning with letter a, and the corresponding concentration was noted to the right of the figure.
# Nectin-4 [3] = target: T1, Nectin-4; test: Surface plasmon resonance (Biacore), 1:1 binding model, human Nectin-4; conditions: SPR, 25° C.
# Description: as §1, §2, §3
# [4] = system: un-transfected HEK293 cells; test: Background binding to un-transfected HEK293 cells (cell microarray suitability); assay type: cell-based, human; conditions: biotin-labeled molecules
# Description: To evaluate potential off-target binding, six biotin-labeled molecules were tested in a cell microarray platform having 6,416 different human proteins spanning diverse functions and subcellular locations.
Molecule,Ki (Nectin-4 [1]) [pM],% Uptake of C306 (Control) [2] [%],kd for mouse Nectin-4 (mouse Nectin-4) [s⁻¹],kd for human Nectin-4 (Nectin-4 [3]) [s⁻¹],Background binding to un-transfected HEK293 cells [4],further results
"{Biotin-PEG4}-CEYDEQFFTALARLRGADICEYIQARFQYLPGLCIEEILDNLGCS-OH (disulfide 1-34, 20-44) [Compound C280]",540,1.56,–,–,–,–
"{DOTA-PEG4}-CEYDEEFFAGLKRLRGGDICYYIKKKFDKVPDLCIEEILDKLGC-OH (disulfide 1-34, 20-44) [Compound C91]",–,–,0.02817,0.02966,–,–
"{DOTA-PEG4}-CEYDEEFFAGLKRLRGGDICYYIKKKFDKVPDLCIEEILDKLGC-OH (disulfide 1-34, 20-44) [Compound C12]",–,–,0.02625,0.01697,–,–
"{Biotin-PEG4}-CDYDEQFFTALKRLRGGDICEYIQA[Lys(Me3)]FQYLPGECIEEILDNLGCS-OH (disulfide 1-34, 20-44) [Compound C255]",660,14.1,–,–,–,–
CC[C@H](C)[C@@H]1NC(=O)[C@H](Cc2ccc(O)cc2)NC(=O)[C@H](CCC(=O)O)NC(=O)[C@@H]2CSSC[C@@H](C(=O)N[C@@H](CO)C(=O)O)NC(=O)CNC(=O)[C@H](CC(C)C)NC(=O)[C@H](CC(N)=O)NC(=O)[C@H](CC(=O)O)NC(=O)[C@H](CC(C)C)NC(=O)[C@H]([C@@H](C)CC)NC(=O)[C@H](CCC(=O)O)NC(=O)[C@H](CCC(=O)O)NC(=O)[C@H]([C@@H](C)CC)NC(=O)[C@H](CSSC[C@H](NC(=O)CCOCCOCCOCCOCCNC(=O)CCCC[C@@H]3SC[C@@H]4NC(=O)N[C@@H]43)C(=O)N[C@@H](CC(=O)O)C(=O)N[C@@H](Cc3ccc(O)cc3)C(=O)N[C@@H](CC(=O)O)C(=O)N[C@@H](CCC(=O)O)C(=O)N[C@@H](CCC(N)=O)C(=O)N[C@@H](Cc3ccccc3)C(=O)N[C@@H](Cc3ccccc3)C(=O)N[C@@H]([C@@H](C)O)C(=O)N[C@@H](C)C(=O)N[C@@H](CC(C)C)C(=O)N[C@@H](CCCCN)C(=O)N[C@@H](CCCNC(=N)N)C(=O)N[C@@H](CC(C)C)C(=O)N[C@@H](CCCNC(=N)N)C(=O)NCC(=O)N[C@@H](C)C(=O)N[C@@H](CC(=O)O)C(=O)N[C@@H]([C@@H](C)CC)C(=O)N2)NC(=O)[C@H](CCC(=O)O)NC(=O)CNC(=O)[C@@H]2CCCN2C(=O)[C@H](CC(C)C)NC(=O)[C@H](Cc2ccc(O)cc2)NC(=O)[C@H](CCC(N)=O)NC(=O)[C@H](Cc2ccccc2)NC(=O)[C@H](CO)NC(=O)[C@H](C)NC(=O)[C@H](CCC(N)=O)NC1=O [Compound C208],–,–,–,–,low-background binding,–
CC[C@H](C)[C@@H]1NC(=O)[C@H](Cc2ccc(O)cc2)NC(=O)[C@H](CCC(=O)O)NC(=O)[C@@H]2CSSC[C@@H](C(=O)N[C@@H](CO)C(=O)O)NC(=O)CNC(=O)[C@H](CC(C)C)NC(=O)[C@H](CC(N)=O)NC(=O)[C@H](CC(=O)O)NC(=O)[C@H](CC(C)C)NC(=O)[C@H]([C@@H](C)CC)NC(=O)[C@H](CCC(=O)O)NC(=O)[C@H](CCC(=O)O)NC(=O)[C@H]([C@@H](C)CC)NC(=O)[C@H](CSSC[C@H](NC(=O)CCOCCOCCOCCOCCNC(=O)CCCC[C@@H]3SC[C@@H]4NC(=O)N[C@@H]43)C(=O)N[C@@H](CC(=O)O)C(=O)N[C@@H](Cc3ccc(O)cc3)C(=O)N[C@@H](CC(=O)O)C(=O)N[C@@H](CCC(=O)O)C(=O)N[C@@H](CCC(N)=O)C(=O)N[C@@H](Cc3ccccc3)C(=O)N[C@@H](Cc3ccccc3)C(=O)N[C@@H]([C@@H](C)O)C(=O)N[C@@H](C)C(=O)N[C@@H](CC(C)C)C(=O)N[C@@H](CCCCN)C(=O)N[C@@H](CCCNC(=N)N)C(=O)N[C@@H](CC(C)C)C(=O)N[C@@H](CCCNC(=N)N)C(=O)NCC(=O)NCC(=O)N[C@@H](CC(=O)O)C(=O)N[C@@H]([C@@H](C)CC)C(=O)N2)NC(=O)[C@H](CC(C)C)NC(=O)CNC(=O)[C@@H]2CCCN2C(=O)[C@H](CC(C)C)NC(=O)[C@H](Cc2ccc(O)cc2)NC(=O)[C@H](CCC(N)=O)NC(=O)[C@H](Cc2ccccc2)NC(=O)[C@H](CO)NC(=O)[C@H](C)NC(=O)[C@H](CCC(N)=O)NC1=O [Compound C190],–,–,–,–,low-background binding,–
"{Biotin-PEG4}-CEYDEQFFTALARLRGGDICEYIQA[Arg(Me2s)]FQYLPGLCIEEILDNLGCS-OH (disulfide 1-34, 20-44) [Compound C267]",760,0.800,–,–,–,–
"Ac-CEYDEEFFAGLKRLRGGDICYYIKKKFDKVPDLCIEEILDKLGC-OH (disulfide 1-34, 20-44) [Compound C9]",–,–,0.02134,0.02271,–,Kd (mouse Nectin-4): 7820 pM; Kd (Nectin-4 [3]): 7500 pM
"{Biotin-PEG4}-CEYDEEFFTALARLRGADICQYIQA[Lys(Me3)]FQYLPALCIEEILDNLGCS-OH (disulfide 1-34, 20-44) [Compound C252]",760,1.24,–,–,–,–
"{Biotin-PEG4}-CDYDEQFFTALA[Cit]LRGGDICEYIQA[Lys(Me3)]FQYLPGLCIEEILDNLGCS-OH (disulfide 1-34, 20-44) [Compound C259]",–,–,–,–,low-background binding,–
